Read-outs that look alike come from different tables or passages of the source.
Assays:
[1] = biological target: T1, mLXRα (Liver X receptor alpha) (Mus musculus, UniProt Q9Z0Y9); test: Transcriptional assay of LXRα (Gal4-LXRα hybrid); assay type: cell-based; settings: for EC50: Table 7, no unit printed for this column (b114 gives 1.5 μM for OR-1050), read-out: Transcriptional Assay of LXRα EC50; for specificity for RORγ versus LXRα: comparison of transcriptional assays for RORγ and LXRα (Table 7)
T1 construct: 172-455; expressed in transfected cells; host or cells: CHO cells, transient transfection
T1 sequence (Q9Z0Y9 172-445 limits assumed): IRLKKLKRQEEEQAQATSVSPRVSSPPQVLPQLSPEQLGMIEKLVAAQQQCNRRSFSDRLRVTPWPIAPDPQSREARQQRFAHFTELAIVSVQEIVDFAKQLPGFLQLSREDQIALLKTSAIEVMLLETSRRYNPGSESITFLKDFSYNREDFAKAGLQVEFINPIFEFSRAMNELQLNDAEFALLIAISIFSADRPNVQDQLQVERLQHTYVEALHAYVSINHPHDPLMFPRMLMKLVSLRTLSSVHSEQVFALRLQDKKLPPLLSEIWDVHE
Experimental: (§1) A firefly luciferase reporter gene for Gal4 DBD hybrid receptors, such as Gal4-RORγ, contains five copies of the Gal4 17-mer response element in its promoter and the coding sequence for firefly luciferase (pG5-luc, Promega). CHO (Chinese Hamster Ovary) cells were cultured in Ham's F12 medium supplemented with 10% fetal calf serum (Gemini Biologicals), 10 μg/ml penicillin and streptomycin, and were maintained in a humidified 37° C. incubator (Thermo Electron, Steri-Cycle) with 5% CO2. 24 hours before transfection, cells were plated in T175 flasks (5×10^6 cells/flask) or T75 flasks (1.7×10^6 cells/flask). Transient transfection of CHO cells was performed using TransIT-CHO reagents (Minis, Madison, Wis.) with a mixing ratio of 2:6:1 between plasmid DNA (in μg), TransIT-CHO (in μl) and CHO-mojo (in μl).
(§2) Plates are maintained at 37° C. in a humidified atmosphere with 7% CO2 overnight. Four (4) hours after cell seeding, compounds dissolved in DMSO at 10 mM were added to cells at final concentrations of 20 micromolar (μM) to 20 nanomolar (nM) in 0.2% DMSO in triplicate plates. Approximately 40 hours later, cytotoxicity in the assay well was characterized by addition of the dye resazurin (O'Brien, Wilson et al. 2000) to a final concentration of 3 μM. […] Percent viability was determined as 2 hour fluorescence, minus background at t=0 hours, normalized to DMSO controls. For detection of luciferase activity, media was removed from plates after the measurement of resazurin conversion, and SteadyLite luciferase reagent (Perkin-Elmer) was added (30 μl/well). Luminescence is detected with a Victor 2-V plate reader (Perkin-Elmer) and normalized to luciferase activity of DMSO control wells alone.
A transcriptional assay for LXRα, using a Gal4-LXRα hybrid, was implemented in order to compare RORγ ligand potencies. In addition to LXRα, transcriptional assays for a number of other major nuclear receptors were developed.

[2] = biological target: T2, mRORγ (Mus musculus, UniProt P51450); test: Transcriptional assay, Gal4-mRORγ with luciferase reporter in CHO cells; assay type: cell-based
T2 construct: expressed in transfected cells; host or cells: CHO cells, transient transfection
Experimental: The complete Gal4-mRORγ nucleotide sequence is shown below:
as §1, §2

[3] = biological target: T3, mRORγ LBD (Mus musculus, UniProt P51450); test: Biochemical assay, coregulatory peptide recruitment to GST-RORγ LBD (FRET)
T3 construct: made in house; host or cells: Sf9 insect cells, baculovirus; cleared lysate used directly
T3 sequence (P51450 251-516): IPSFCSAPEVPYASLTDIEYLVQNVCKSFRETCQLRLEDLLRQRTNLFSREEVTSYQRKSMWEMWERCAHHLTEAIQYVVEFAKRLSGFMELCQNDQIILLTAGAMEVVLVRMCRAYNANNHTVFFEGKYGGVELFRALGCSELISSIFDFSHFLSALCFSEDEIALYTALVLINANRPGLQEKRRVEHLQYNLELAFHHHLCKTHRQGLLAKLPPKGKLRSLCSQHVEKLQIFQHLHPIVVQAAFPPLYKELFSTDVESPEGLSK
Description: GST-RORγ was generated by subcloning the RORγ-LBD into pET-41a, a vector which expresses GST fusion proteins in bacteria.
The cloning steps for GST-RORγ were as follows. The mRORγ LBD was excised from Gal4-mRORγ (see above for cloning steps) at BamHI and HindIII sites of Sequence 1 and cloned into the corresponding sites of pET-41a(+) (EMD Biosciences, San Diego, Calif.). A GST-mRORγ fragment was then excised from pET-41a(+) at XbaI and XhoI sites and cloned into a pcDNA3.1vector (Invitrogen, Carlsbad, Calif.) restricted at NheI and XhoI sites. Plasmid GST-mRORγ-pcDNA3.1 was used as a PCR template to generate a GST-mRORγ fragment that was later cloned into pENTR/D-TOPO vector (Invitrogen, Carlsbad, Calif.) by standard cloning techniques recommended by the manufacturer of the vector. The nucleotide sequence of GST-mRORγ is shown below:
For baculoviral expression of RORγ, the cDNA fragment of GST-RORγ— LBD, was subcloned from pET-41a into the pENTR/D-TOPO vector using a commercially-available kit (BaculoDirect, Invitrogen). Briefly, GST-RORγ carried by pENTR/D-TOPO was transfected into mono-layer Sf9 cells (8×10^5/well in 6-well plates) by Cellfectin (Invitrogen). Sf9 cells were incubated at 27° C. in a non-humidified incubator for 72 hours. Cell media was collected as P1 viral stock and used to further infect Sf9 cells to generate P2 and P3 virus. […] A plaque assay was performed to determine the titer of P3 virus and to isolate single plaques. P4 virus was generated from a single plaque and propagated on a larger scale.
Adherent SF9 cells were infected with baculovirus carrying GST-RORγ and were cultured for 72 hours. Sf9 cell were then subject to a brief sonication in a lysis buffer (20 mM phosphate, pH 6.8, 50 mM KCl, 50 mM NaCl, 0.5 mM EDTA, 50% glycerol, 0.001% NP-40 and 1 mM DTT) and centrifuged at 3000 rpm for 15 minutes. […] Cleared cell lysate was stored at −70° C. and is directly utilized in the coregulatory peptide recruitment assay.
The labeled probes anti-GST-APC and SA-RPE were purchased from Prozyme (San Leandro, Calif.). Compounds were added directly from a DMSO solution to a final concentration of 1-2% DMSO. Fluorescence was measured on a Wallac Victor 2 V plate reader equipped with a 670/40 nm filter (Omega Optical, Brattleboro, Vt.) for APC emission (Channel A) and a 600/25 bandpass filter for monitoring the RPE emission (Channel B).

[4] = biological target: T4, human RORγ (Homo sapiens, UniProt P51449); test: Transcriptional assay of human RORγ (Gal4-hRORγ); assay type: cell-based; settings: Table 4B
T4 construct: expressed in transfected cells; host or cells: CHO cells, transient transfection
T4 sequence (P51449 253-518): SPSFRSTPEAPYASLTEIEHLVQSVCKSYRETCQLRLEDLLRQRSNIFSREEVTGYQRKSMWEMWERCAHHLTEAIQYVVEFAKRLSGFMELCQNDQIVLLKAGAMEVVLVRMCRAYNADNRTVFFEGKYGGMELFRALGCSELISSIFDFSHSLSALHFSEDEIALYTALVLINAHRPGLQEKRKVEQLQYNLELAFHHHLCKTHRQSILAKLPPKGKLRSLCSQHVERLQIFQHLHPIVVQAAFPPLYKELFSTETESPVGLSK
Experimental: The complete Gal4-hRORγ nucleotide sequence is shown below:
as §1, §2

[5] = biological target: T5, hPR (progesterone receptor) (Homo sapiens, UniProt P06401); test: Crossreactive receptor transcriptional assay (Gal4 hybrid); assay type: cell-based; settings: activity of standard ligand at 20 μM
T5 construct: 687-933; expressed in transfected cells; host or cells: CHO cells, transient transfection
T5 sequence (P06401 687-933): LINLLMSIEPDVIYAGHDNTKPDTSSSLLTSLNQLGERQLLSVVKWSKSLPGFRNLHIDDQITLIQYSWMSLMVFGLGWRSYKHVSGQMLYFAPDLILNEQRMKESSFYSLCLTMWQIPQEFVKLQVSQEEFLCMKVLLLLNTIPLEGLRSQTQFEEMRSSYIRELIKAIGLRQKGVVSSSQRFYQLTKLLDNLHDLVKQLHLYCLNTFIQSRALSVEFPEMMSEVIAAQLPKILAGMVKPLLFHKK
Experimental: as §1, §2

[6] = biological target: T6, hPPARα (Homo sapiens, UniProt Q07869); test: as above; assay type: cell-based; settings: activity of standard ligand at 20 μM
T6 construct: 166-468; expressed in transfected cells; host or cells: CHO cells, transient transfection
T6 sequence (Q07869 166-468): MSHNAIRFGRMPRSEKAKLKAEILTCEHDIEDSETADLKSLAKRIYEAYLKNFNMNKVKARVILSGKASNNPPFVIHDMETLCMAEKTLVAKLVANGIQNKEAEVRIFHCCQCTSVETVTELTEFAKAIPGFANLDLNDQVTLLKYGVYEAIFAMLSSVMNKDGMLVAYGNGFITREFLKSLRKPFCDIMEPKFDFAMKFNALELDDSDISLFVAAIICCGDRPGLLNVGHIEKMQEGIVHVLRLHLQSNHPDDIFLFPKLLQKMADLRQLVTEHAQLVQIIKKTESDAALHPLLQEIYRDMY
Experimental: as §1, §2

[7] = test system: TH-17 cell differentiation from naïve CD4+ T cells; test: Differentiation of naïve CD4+ T cells, intracellular IL-17/IFN-γ staining by FACS (TH-17 protocol, TGFβ + IL-6); assay type: cell-based, mouse; settings: Table 8, naïve CD4 cells, 5 days, mean ±SD
[8] = Table 1, antagonists, inhibition of basal Gal4-mRORγ transcription in CHO cells, read-out: Assay EC50 in micromolar at mRORγ Transcriptional
[9] = Table 7, taken from Table 1, read-out: Assay EC50 in micromolar at mRORγ Transcriptional
[10] = Table 1, mRORγ and peptide K1, read-out: Assay EC50 in micromolar at mRORγ Biochemical
[11] = Table 7, taken from Table 1 (peptide K1), read-out: Assay EC50 in micromolar at mRORγ Biochemical
[12] = Table 4A, medians of two or more assays, unit inferred, read-out: EC50 Transcriptional
[13] = Table 4A, peptide K1, no agonist present, medians of two or more assays, unit inferred, read-out: EC50 Biochemical

T2 sequence (P51450 with tags, fused parts or gaps): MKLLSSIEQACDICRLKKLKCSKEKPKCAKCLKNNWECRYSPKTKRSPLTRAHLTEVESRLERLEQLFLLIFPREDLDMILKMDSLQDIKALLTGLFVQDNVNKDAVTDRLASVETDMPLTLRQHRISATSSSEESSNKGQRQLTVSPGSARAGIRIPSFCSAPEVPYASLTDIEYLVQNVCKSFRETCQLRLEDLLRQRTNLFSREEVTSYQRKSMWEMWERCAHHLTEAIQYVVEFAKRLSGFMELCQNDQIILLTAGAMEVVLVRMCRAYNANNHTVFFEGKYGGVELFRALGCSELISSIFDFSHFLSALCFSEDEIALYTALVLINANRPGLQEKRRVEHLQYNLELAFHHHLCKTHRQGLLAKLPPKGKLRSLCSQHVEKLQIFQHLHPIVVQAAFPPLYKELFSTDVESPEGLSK

For `CCCCc1ccc(S(=O)(=O)N(CC)c2ccc(C(O)(C(F)(F)F)C(F)(F)F)cc2)cc1` [OR-1047, 4-Butyl-N-ethyl-N-[4-(2,2,2-trifluoro-1-hydroxy-1-trifluoromethyl-ethyl)-phenyl]-benzenesulfonamide], the Emax [1] was < 5%, the EC50 [1] was > 20000 nM and the “specificity for RORγ versus LXRα” value [1] was “more specific for RORγ than LXRα”. The EC50 [2, 8] was 3.6 µM, the EC50 [2, 9] was 3.6 µM and the EC50 [3, 10] was 5.8 µM. It also gave an EC50 [3, 11] of 5.8 µM.

`CCN(c1ccc(C(O)(C(F)(F)F)C(F)(F)F)cc1)S(=O)(=O)c1ccc(Br)cc1` [OR-1048, 4-Bromo-N-ethyl-N-[4-(2,2,2-trifluoro-1-hydroxy-1-trifluoromethyl-ethyl)-phenyl]-benzene sulfonamide] was tested, and the Emax [1] was > 80%, the EC50 [1] was 570 nM and the “specificity for RORγ versus LXRα” value [1] was “more specific for RORγ than LXRα”. The EC50 [2, 8] was 0.12 µM, the EC50 [2, 9] was 0.12 µM and the EC50 [3, 10] was 0.42 µM. The EC50 [3, 11] was 0.42 µM.

For `CCN(c1ccc(C(O)(C(F)(F)F)C(F)(F)F)cc1)S(=O)(=O)c1ccc(C)cc1` [OR-1052, N-Ethyl-4-methyl-N-[4-(2,2,2-trifluoro-1-hydroxy-1-trifluoromethyl-ethyl)-phenyl]-benzenesulfonamide], the Emax [1] was > 80%, the EC50 [1] was 810 nM and the “specificity for RORγ versus LXRα” value [1] was “more specific for RORγ than LXRα”. The EC50 [2, 8] was 0.21 µM, the EC50 [2, 9] was 0.21 µM and the EC50 [3, 10] was 0.89 µM. The EC50 [3, 11] was 0.89 µM.

For `CCn1c(CNc2cccc(Cl)c2)nnc1SCC(=O)Nc1cccc2ccccc12` [OR-133097, 2-{5-[(3-Chloro-phenylamino)-methyl]-4-ethyl-4H-[1,2,4]triazol-3-ylsulfanyl}N-naphthalen-1-yl-acetamide], the EC50 [2, 12] was 1.44 µM, the EC50 [4] was 5 µM and the EC50 [3, 13] was 1.34 µM.

In the case of `CCn1c(CNc2cccc(C(F)(F)F)c2)nnc1SCC(=O)Nc1cccc2ccccc12` [OR-133099, 2-{4-Ethyl-5-[(3-trifluoromethyl-phenylamino)-methyl]-4H-[1,2,4]triazol-3-ylsulfanyl}N-naphthalen-1-yl-acetamide], the EC50 [2, 12] is reported as 1.04 µM, the EC50 [4] is reported as 2.4 µM and the EC50 [3, 13] is reported as 1.33 µM.

With `Cn1c(CNc2cccc(Cl)c2)nnc1SCC(=O)Nc1cccc2ccccc12` [OR-133167, 2-{5-[(3-Chloro-phenylamino)-methyl]-4-methyl-4H-[1,2,4]triazol-3-ylsulfanyl}N-naphthalen-1-yl-acetamide] the EC50 [2, 12] was 3.3 µM, the EC50 [4] was 9.4 µM and the EC50 [3, 13] was 3.4 µM.

`CCn1c(CNc2ccc(C)c(Cl)c2)nnc1SCC(=O)Nc1cccc2ccccc12` [OR-133171, 2-{5-[(3-Chloro-4-methyl-phenylamino)-methyl]-4-ethyl-4H-[1,2,4]triazol-3-ylsulfanyl}N-naphthalen-1-yl-acetamide] gave an EC50 [2, 12] of 0.49 µM, an EC50 [4] of 1.7 µM and an EC50 [3, 13] of 0.44 µM.

`CC(=O)[C@H]1CC[C@H]2[C@@H]3CCC4=CC(=O)CC[C@]4(C)[C@H]3CC[C@]12C` [Progesterone, progesterone, reference compound] was tested, and the “Efficacy at hPR” value [5] was 6X.

In the case of `Cc1cccc(Nc2cc(Cl)nc(SCC(=O)O)n2)c1C` [WY14643, reference compound], the “Efficacy at hPPARα” value [6] is reported as 6X.

With “IL-6: exogenous cytokine used for TH-17 differentiation” the “IL-17 (%)” value ([7]; 20 ng/ml) was 1.20 ± 0.04%.

In the case of “TGFβ1: exogenous cytokine used for TH-17 differentiation”, the “IL-17 (%)” value ([7]; 4 ng/ml) is reported as 0.21 ± 0.02%.
